Measurements reported in patent publication US8030354B2, “Substituted biphenyl GPR40 modulators” (Amgen Inc., priority 2007, dated 2011).

Legend:
GPR40 [1] = target: T1, GPR40 (Homo sapiens, UniProt O14842); assay: Cell-based aequorin assay (CHO cells stably expressing GPR40 and aequorin); design: expressed in transfected cells; host or cells: CHO cells stably transfected with GPR40 and aequorin; conditions: activation of human GPR40, CHO cells, 0.01% HSA
How it was run: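 CHO cells stably co-expressing GPR40 and aequorin, loaded with coelenterazine (1 ug/mL, 2 h, room temperature) in H/HBSS with 20 mM Hepes and 0.01% fatty acid-free HSA. Serially diluted compounds added; luminescence recorded over 20 s. EC50 from dose-response of maximum relative light units.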

GPR40 [2] = target: T1, GPR40; assay: Inositol phosphate accumulation assay (A9_GPR40 cells); format: cell-based; design: expressed in transfected cells; host or cells: CHO cells stably transfected with GPR40 and aequorin; conditions: inositol phosphate assay, A9_GPR40 cells, 1 hour; read-out: IP3 EC50
How it was run: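 A9 cells stably expressing GPR40 were labelled 16 h with 1 μCi/mL ^3H-inositol in inositol-free DMEM with dialysed FBS. Compounds in HBSS/10 mM LiCl with HSA were applied for 1 h at 37° C, then quenched with 20 mM formic acid. Accumulated [^3H] inositol phosphates were counted by SPA.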

T1 sequence (O14842 whole entry): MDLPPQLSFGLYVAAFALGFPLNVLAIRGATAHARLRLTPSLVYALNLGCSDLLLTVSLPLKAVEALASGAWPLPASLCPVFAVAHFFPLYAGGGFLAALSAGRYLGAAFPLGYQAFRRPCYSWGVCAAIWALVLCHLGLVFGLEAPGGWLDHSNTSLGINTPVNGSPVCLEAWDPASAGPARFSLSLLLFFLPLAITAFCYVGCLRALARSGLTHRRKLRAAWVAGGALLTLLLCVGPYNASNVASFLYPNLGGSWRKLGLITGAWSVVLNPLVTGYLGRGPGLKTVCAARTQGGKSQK

Compound | EC50 (GPR40 [1]) | EC50 (GPR40 [2])
COc1ccc(F)c(-c2ccc(COc3cccc(C(C)CC(=O)O)c3)cc2C2=CCCCC2)c1 (single isomer, unassigned) [Example 64.21, (3R)-3-(3-(((2-(1-Cyclohexen-1-yl)-2′-fluoro-5′-(methyloxy)-1,1′-biphenyl-4-yl)methyl)oxy)phenyl)butanoic acid or (3S)-3-(3-(((2-(1-cyclohexen-1-yl)-2′-fluoro-5′-(methyloxy)-1,1′-biphenyl-4-yl)methyl)oxy)phenyl)butanoic acid] | 100 to 1000 nM | 10 to 100 nM
CCC[C@H](CC(=O)O)c1cccc(OCc2ccc(-c3cc(OC)ccc3F)c(C(C)(C)C)c2)c1 (single isomer, unassigned) [Example 43, (3R)-3-(3-(((2-(1,1-Dimethylethyl)-2′-fluoro-5′-(methyloxy)-1,1′-biphenyl-4-yl)methyl)oxy)phenyl)hexanoic acid or (3S)-3-(3-(((2-(1,1-dimethylethyl)-2′-fluoro-5′-(methyloxy)-1,1′-biphenyl-4-yl)methyl)oxy)phenyl)hexanoic acid] | 100 to 1000 nM | 100 to 1000 nM
COc1ccc(F)c(-c2ccc(COc3cccc(C(CC(=O)O)CC4CC4)c3)cc2C(C)C(C)(C)C)c1 (single isomer, unassigned) [Example 69.22] | 100 to 1000 nM | < 10 nM
COc1cccc(-c2ccc(COc3cccc(C(CC(=O)O)CC4CC4)c3)cc2C(C)(C)C)c1 (single isomer, unassigned) [Example 69.3, (3R)-4-Cyclopropyl-3-(3-(((2-(1,1-dimethylethyl)-3′-(methyloxy)-1,1′-biphenyl-4-yl)methyl)oxy)phenyl)butanoic acid or (3S)-4-cyclopropyl-3-(3-(((2-(1,1-dimethylethyl)-3′-(methyloxy)-1,1′-biphenyl-4-yl)methyl)oxy)phenyl)butanoic acid] | 100 to 1000 nM | 10 to 100 nM
CCCCOc1cc(COc2cccc([C@H](C)CC(=O)O)c2)ccc1-c1cc(OC)ccc1F (single isomer, unassigned) [Example 5, (3R)-3-(3-(((2Butyloxy)-2′-fluoro-5′-(methyloxy)-1,1′-biphenyl-4-yl)methyl)oxy)phenyl)butanoic acid or (3S)-3-(3-(((2-(butyloxy)-2′-fluoro-5′-(methyloxy)-1,1′-biphenyl-4-yl)methyl)oxy)phenyl)butanoic acid] | 100 to 1000 nM | 100 to 1000 nM
COc1ccc(F)c(-c2ccc(COc3cccc([C@@H](CC(=O)O)CC4CC4)c3)cc2C(O)(C(C)C)C(C)C)c1 (single isomer, unassigned) [Example 69.19, (3R)-4-Cyclopropyl-3-(3-(((2′-fluoro-2-(1-hydroxy-2-methyl-1-(1-methylethyl)propyl)-5′-(methyloxy)-1,1′-biphenyl-4-yl)methyl)oxy)phenyl)butanoic acid or (3S)-4-cyclopropyl-3-(3-(((2′-fluoro-2-(1-hydroxy-2-methyl-1-(1-methylethyl)propyl)-5′-(methyloxy)-1,1′-biphenyl-4-yl)methyl)oxy)phenyl)butanoic acid] | 100 to 1000 nM | 100 to 1000 nM
CC[C@H](CC(=O)O)c1cccc(OCc2ccc(-c3cc(OC)ccc3F)c(C(C)(C)C)c2)c1 (single isomer, unassigned) [Example 17, (3R)-3-(3-(((2-(1,1-Dimethylethyl)-2′-fluoro-5′-(methyloxy)-1,1′-biphenyl-4-yl)methyl)oxy)phenyl)pentanoic acid or (3S)-3-(3-(((2-(1,1-dimethylethyl)-2′-fluoro-5′-(methyloxy)-1,1′-biphenyl-4-yl)methyl)oxy)phenyl)pentanoic acid] | 100 to 1000 nM | 100 to 1000 nM
COc1ccc(F)c(-c2ccc(COc3cccc([C@@H](CC(=O)O)CC4CC4)c3)cc2C(F)C(C)(C)C)c1 (single isomer, unassigned) [Example 69.17, (3R)-4-cyclopropyl-3-(3-(((2′-fluoro-2-(1-fluoro-2,2-dimethylpropyl)-5′-(methyloxy)-1,1′-biphenyl-4-yl)methyl)oxy)phenyl)butanoic acid or (3S)-4-cyclopropyl-3-(3-(((2′-fluoro-2-(1-fluoro-2,2-dimethylpropyl)-5′-(methyloxy)-1,1′-biphenyl-4-yl)methyl)oxy)phenyl)butanoic acid] | 100 to 1000 nM | < 10 nM
CC1(C)CCC[C@@H]1c1cc(COc2cccc([C@@H](CC(=O)O)C3CC3)c2)ccc1-c1cc(C(F)F)ccc1F (single isomer, unassigned) [Example 66.51] | 100 to 1000 nM | 10 to 100 nM
COc1ccc(F)c(-c2ccc(COc3cccc(C(C)(CC(=O)O)C4CC4)c3)cc2[C@H]2CCCC2(C)C)c1 (single isomer, unassigned) [Example 104, 3-Cyclopropyl-3-(3-(((2-((1S)-2,2-dimethylcyclopentyl)-2′-fluoro-5′-(methyloxy)-1,1′-biphenyl-4-yl)methyl)oxy)phenyl)butanoic acid or 3-cyclopropyl-3-(3-(((2-((1R)-2,2-dimethylcyclopentyl)-2′-fluoro-5′-(methyloxy)-1,1′-biphenyl-4-yl)methyl)oxy)phenyl)butanoic acid] | 100 to 1000 nM | 10 to 100 nM
COc1ccc(F)c(-c2ccc(COc3cccc(C(CC(=O)O)CC4CC4)c3)cc2N2CCCCC2)c1 (single isomer, unassigned) [Example 69.28, (3R)-4-Cyclopropyl-3-(3-(((2′-fluoro-5′-(methyloxy)-2-(1-piperidinyl)-1,1′-biphenyl-4-yl)methyl)oxy)phenyl)butanoic acid or (3S)-4-cyclopropyl-3-(3-(((2′-fluoro-5′-(methyloxy)-2-(1-piperidinyl)-1,1′-biphenyl-4-yl)methyl)oxy)phenyl)butanoic acid] | 100 to 1000 nM | 10 to 100 nM
COc1cc(-c2ccc(COc3cccc(C(CC(=O)O)C4CC4)c3)cc2C2=CCCCC2(C)C)c(F)cn1 (single isomer, unassigned) [Example 66.34, (3S)-3-Cyclopropyl-3-(3-(((3-(6,6-dimethyl-1-cyclohexen-1-yl)-4-(5-fluoro-2-(methyloxy)-4-pyridinyl)phenyl)methyl)oxy)phenyl)propanoic acid or (3S)-3-Cyclopropyl-3-(3-(((3-(6,6-dimethyl-1-cyclohexen-1-yl)-4-(5-fluoro-2-(methyloxy)-4-pyridinyl)phenyl)methyl)oxy)phenyl)propanoic acid] | 10 to 100 nM | 10 to 100 nM
COc1cc(-c2cc(F)c(COc3cccc([C@@H](CC(=O)O)C4CC4)c3)cc2[C@H]2CCCC2(C)C)c(F)cn1 (single isomer, unassigned) [Example 66.77] | 10 to 100 nM | < 10 nM
COc1cc(-c2ccc(COc3cccc([C@@H](CC(=O)O)C4CC4)c3)cc2[C@@H]2CCCC2(C)C)c(F)cn1 (single isomer, unassigned) [Example 66.37] | 100 to 1000 nM | 10 to 100 nM

Next, values leading:

EC50 (GPR40 [1]) | EC50 (GPR40 [2]) | Compound
100 to 1000 nM | 10 to 100 nM | CC[C@H](CC(=O)O)c1cccc(OCc2ccc(-c3cccc(OC)c3)c(C3CCCCCC3)c2)c1 (single isomer, unassigned) [Example 78.8, (3R)-3-(3-(((2-Cycloheptyl-3′-(methyloxy)-1,1′-biphenyl-4-yl)methyl)oxy)phenyl)pentanoic acid or (3S)-3-(3-(((2-cycloheptyl-3′-(methyloxy)-1,1′-biphenyl-4-yl)methyl)oxy)phenyl)pentanoic acid]
100 to 1000 nM | 10 to 100 nM | CC[C@H](CC(=O)O)c1cccc(OCc2ccc(-c3cc(OC)ccc3F)c(C3CCCCCC3)c2)c1 (single isomer, unassigned) [Example 78.7, (3R)-3-(3-(((2-Cycloheptyl-2′-fluoro-5′-(methyloxy)-1,1′-biphenyl-4-yl)methyl)oxy)phenyl)pentanoic acid or (3S)-3-(3-(((2-cycloheptyl-2′-fluoro-5′-(methyloxy)-1,1′-biphenyl-4-yl)methyl)oxy)phenyl)pentanoic acid]
100 to 1000 nM | < 10 nM | CCCC(CC(=O)O)c1cccc(OCc2ccc(-c3cccc(OC)c3)c(C3CCCC3(C)C)c2)c1 (single isomer, unassigned) [Example 80.6]
100 to 1000 nM | < 10 nM | COc1cc(-c2ccc(COc3cccc(C(CC(=O)O)CC4CC4)c3F)cc2C(OC)C(C)(C)C)c(F)cn1 (single isomer, unassigned) [Example 84.9]
10 to 100 nM | < 10 nM | COc1ccc(F)c(-c2ccc(COc3cc(F)cc(C(CC(=O)O)CC4CC4)c3)cc2C2CCCC2(C)C)c1 (single isomer, unassigned) [Example 89.1]
100 to 1000 nM | 100 to 1000 nM | CCC(CC(=O)O)c1cccc(OCc2ccc(-c3cc(OC)ccc3F)c(C(C)(C)C)c2)c1F (single isomer, unassigned) [Example 77.2, (3R)-3-(3-(((2-(1,1-Dimethylethyl)-2′-fluoro-5′-(methyloxy)-1,1′-biphenyl-4-yl)methyl)oxy)-2-fluorophenyl)pentanoic acid or (3S)-3-(3-(((2-(1,1-dimethylethyl)-2′-fluoro-5′-(methyloxy)-1,1′-biphenyl-4-yl)methyl)oxy)-2-fluorophenyl)pentanoic acid]
100 to 1000 nM | < 10 nM | CCC(CC(=O)O)c1cccc(OCc2ccc(-c3cc(OC)ncc3F)c(C3CCCC3(C)C)c2)c1F (single isomer, unassigned) [Example 77.9]
100 to 1000 nM | 10 to 100 nM | COc1cccc(-c2ccc(COc3cccc(C(CC(=O)O)C4CCC4)c3)cc2C2CCCC2(C)C)c1 (single isomer, unassigned) [Example 79.6]
